Results published in the supplement of paper PMC10307832.

Key:
Test in all cases: relative viability (nuclei count vs DMSO), 5 days (fraction); higher = more cells survive
Metformin + Olaparib = compound: CN(C)C(=N)NC(=N)N [Metformin] + O=C(c1cc(Cc2n[nH]c(=O)c3ccccc23)ccc1F)N1CCN(C(=O)C2CC2)CC1 [Olaparib] (partner 8 µM)
How it was run: (§1)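 Medians of duplicate plates are given as relative viability. That measure is the nuclei count in treated wells divided by the count in vehicle wells. Counts were taken on 4× images of lung cancer cell lines in 1536-well plates, 5 days after pin-tool dosing the day after seeding with one drug alone or a fixed anchor-drug dose plus five library-drug doses (not always all listed) in √10 steps.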

Apatinib + AZD7762 = compound: N#CC1(c2ccc(NC(=O)c3cccnc3NCc3ccncc3)cc2)CCCC1 [Apatinib] + NC(=O)Nc1cc(-c2cccc(F)c2)sc1C(=O)N[C@H]1CCCNC1 [AZD7762] (partner 0.2 µM)
How it was run: as §1

Apatinib + Linsitinib = compound: N#CC1(c2ccc(NC(=O)c3cccnc3NCc3ccncc3)cc2)CCCC1 [Apatinib] + C[C@]1(O)C[C@@H](c2nc(-c3ccc4ccc(-c5ccccc5)nc4c3)c3c(N)nccn32)C1 [Linsitinib] (partner 1 µM)
How it was run: as §1

Metformin + Crizotinib = compound: CN(C)C(=N)NC(=N)N [Metformin] + C[C@@H](Oc1cc(-c2cnn(C3CCNCC3)c2)cnc1N)c1c(Cl)ccc(F)c1Cl [Crizotinib] (partner 1 µM)
How it was run: as §1

Cell Line NCI-H460 has a relative viability (Metformin + Olaparib; first compound 31.62 µM) of 0.412, a relative viability (Metformin + Olaparib; first compound 100 µM) of 0.422 and a relative viability (Metformin + Olaparib; first compound 316.23 µM) of 0.294. It also gave a relative viability (Metformin + Olaparib; first compound 1000 µM) of 0.262, a relative viability (Apatinib + AZD7762; first compound 0.08 µM) of 0.538 and a relative viability (Apatinib + AZD7762; first compound 0.253 µM) of 0.581. It also gave a relative viability (Apatinib + AZD7762; first compound 0.8 µM) of 0.417, a relative viability (Apatinib + AZD7762; first compound 2.53 µM) of 0.269 and a relative viability (Apatinib + AZD7762; first compound 8 µM) of 0.394. For the same cell line, the relative viability (Apatinib + Linsitinib; first compound 0.08 µM) was 0.841, the relative viability (Apatinib + Linsitinib; first compound 0.253 µM) was 0.863 and the relative viability (Apatinib + Linsitinib; first compound 0.8 µM) was 0.661. For the same cell line, the relative viability (Apatinib + Linsitinib; first compound 2.53 µM) was 0.737, the relative viability (Apatinib + Linsitinib; first compound 8 µM) was 0.64 and the relative viability (Metformin + Crizotinib; first compound 31.62 µM) was 0.734. For the same cell line, the relative viability (Metformin + Crizotinib; first compound 100 µM) was 0.778, the relative viability (Metformin + Crizotinib; first compound 316.23 µM) was 0.829 and the relative viability (Metformin + Crizotinib; first compound 1000 µM) was 0.916.
